Laboratory results published in ChEMBL document CHEMBL5291721, “A preclinical secondary pharmacology resource illuminates target-adverse drug reaction associations of marketed drugs” (Nat Commun, 2023).
*1 amine or outer side, *2 acyl side, *3 side chain or, on linkers, in order; H or OH if unused. Where a SMILES comes first, the peptide text is derived from it. Bridges are numbered along the chain shown (N, C = ends). [ ]: non-standard residue; d: D form. The star is where a group is joined. hTyr(3S-OH,4S-OH,3'-OSO3H) = N[C@H](C(=O)O)[C@H](O)[C@@H](O)c1ccc(O)c(OS(=O)(=O)O)c1; Orn(4R-OH,5R-OH) = O=C([C@H](C[C@@H](O)[C@@H](O)N[*:3])N[*:1])[*:2]; Pro(3S-OH,4S-Me) = C[C@H]1CN[C@H](C(=O)O)[C@H]1O; X1 = CCCCCOc1ccc(-c2cc(-c3ccc(C(=O)*)cc3)no2)cc1; Gln(3R-OH) = NC(=O)C[C@@H](O)[C@H](N)C(=O)O; Hyp = O=C(O)[C@@H]1C[C@@H](O)CN1

How the values were obtained:
[1] = target: T1, Alpha-1A adrenergic receptor (Homo sapiens, UniProt P35348); assay type: functional, cell-based
T1 sequence (P35348 whole entry): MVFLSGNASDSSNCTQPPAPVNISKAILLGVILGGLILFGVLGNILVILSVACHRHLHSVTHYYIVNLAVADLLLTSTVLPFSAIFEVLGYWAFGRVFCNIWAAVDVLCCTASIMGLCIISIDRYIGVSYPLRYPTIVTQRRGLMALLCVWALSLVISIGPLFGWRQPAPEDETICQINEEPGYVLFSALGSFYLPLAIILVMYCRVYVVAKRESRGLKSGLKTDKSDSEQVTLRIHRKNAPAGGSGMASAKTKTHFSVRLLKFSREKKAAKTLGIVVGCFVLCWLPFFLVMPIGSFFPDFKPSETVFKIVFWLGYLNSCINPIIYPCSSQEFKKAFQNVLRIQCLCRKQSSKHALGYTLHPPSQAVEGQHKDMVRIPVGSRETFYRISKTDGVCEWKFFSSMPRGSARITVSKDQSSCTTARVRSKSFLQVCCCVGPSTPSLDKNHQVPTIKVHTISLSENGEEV

Adenosine receptor A2a = Adenosine receptor A2a (Homo sapiens, UniProt P29274)
Adenosine receptor A2a, sequence (P29274 whole entry): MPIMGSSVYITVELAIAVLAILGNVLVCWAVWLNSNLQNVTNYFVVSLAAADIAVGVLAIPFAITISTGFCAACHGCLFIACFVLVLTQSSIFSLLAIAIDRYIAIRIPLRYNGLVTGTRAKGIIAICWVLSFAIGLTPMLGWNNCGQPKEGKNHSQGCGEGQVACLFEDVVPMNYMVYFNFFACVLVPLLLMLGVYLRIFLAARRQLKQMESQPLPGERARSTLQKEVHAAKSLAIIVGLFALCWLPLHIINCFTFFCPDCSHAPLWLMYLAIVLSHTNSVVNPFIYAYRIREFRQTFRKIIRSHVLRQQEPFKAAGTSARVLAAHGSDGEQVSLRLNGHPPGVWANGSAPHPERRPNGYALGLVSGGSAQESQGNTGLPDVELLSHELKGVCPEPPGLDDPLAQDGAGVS

[2] = target: T2, Alpha-2A adrenergic receptor (Homo sapiens, UniProt P08913); assay type: functional, cell-based
T2 sequence (P08913 whole entry): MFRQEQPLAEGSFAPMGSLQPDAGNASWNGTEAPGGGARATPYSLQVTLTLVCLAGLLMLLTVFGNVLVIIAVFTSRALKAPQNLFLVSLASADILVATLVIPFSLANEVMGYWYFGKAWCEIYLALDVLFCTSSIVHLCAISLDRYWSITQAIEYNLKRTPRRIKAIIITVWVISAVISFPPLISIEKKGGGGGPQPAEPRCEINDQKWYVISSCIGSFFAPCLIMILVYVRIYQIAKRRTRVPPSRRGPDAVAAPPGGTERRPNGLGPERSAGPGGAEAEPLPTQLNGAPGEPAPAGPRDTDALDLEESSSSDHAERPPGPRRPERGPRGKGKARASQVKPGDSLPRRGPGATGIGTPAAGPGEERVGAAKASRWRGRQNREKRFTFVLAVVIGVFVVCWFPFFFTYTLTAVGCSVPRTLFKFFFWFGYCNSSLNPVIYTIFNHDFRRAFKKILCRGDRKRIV

[3] = target: T3, Type-1 angiotensin II receptor (Homo sapiens, UniProt P30556)
T3 sequence (P30556 whole entry): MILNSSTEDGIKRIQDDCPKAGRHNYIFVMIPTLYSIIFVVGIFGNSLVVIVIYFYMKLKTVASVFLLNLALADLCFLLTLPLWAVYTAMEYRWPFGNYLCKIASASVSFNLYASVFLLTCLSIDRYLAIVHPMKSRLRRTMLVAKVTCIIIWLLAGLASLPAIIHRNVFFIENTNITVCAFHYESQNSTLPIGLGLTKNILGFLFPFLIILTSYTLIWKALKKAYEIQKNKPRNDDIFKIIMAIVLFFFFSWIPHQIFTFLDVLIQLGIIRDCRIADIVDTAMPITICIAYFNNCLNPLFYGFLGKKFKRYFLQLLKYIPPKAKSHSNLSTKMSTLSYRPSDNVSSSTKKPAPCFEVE

Vasopressin V1a receptor = Vasopressin V1a receptor (Homo sapiens, UniProt P37288)
Vasopressin V1a receptor, sequence (P37288 whole entry): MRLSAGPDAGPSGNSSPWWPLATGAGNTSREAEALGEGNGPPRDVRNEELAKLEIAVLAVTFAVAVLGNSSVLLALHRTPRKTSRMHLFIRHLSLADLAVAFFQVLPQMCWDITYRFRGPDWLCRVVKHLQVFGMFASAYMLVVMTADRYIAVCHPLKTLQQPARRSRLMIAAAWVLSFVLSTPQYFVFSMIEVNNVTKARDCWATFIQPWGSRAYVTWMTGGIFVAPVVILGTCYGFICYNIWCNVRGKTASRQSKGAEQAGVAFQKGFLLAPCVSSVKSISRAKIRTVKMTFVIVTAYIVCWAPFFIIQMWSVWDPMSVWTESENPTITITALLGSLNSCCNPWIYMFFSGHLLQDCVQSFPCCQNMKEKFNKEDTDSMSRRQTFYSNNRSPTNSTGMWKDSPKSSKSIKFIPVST

[4] = target: T4, Cholecystokinin receptor type A (Homo sapiens, UniProt P32238)
T4 sequence (P32238 whole entry): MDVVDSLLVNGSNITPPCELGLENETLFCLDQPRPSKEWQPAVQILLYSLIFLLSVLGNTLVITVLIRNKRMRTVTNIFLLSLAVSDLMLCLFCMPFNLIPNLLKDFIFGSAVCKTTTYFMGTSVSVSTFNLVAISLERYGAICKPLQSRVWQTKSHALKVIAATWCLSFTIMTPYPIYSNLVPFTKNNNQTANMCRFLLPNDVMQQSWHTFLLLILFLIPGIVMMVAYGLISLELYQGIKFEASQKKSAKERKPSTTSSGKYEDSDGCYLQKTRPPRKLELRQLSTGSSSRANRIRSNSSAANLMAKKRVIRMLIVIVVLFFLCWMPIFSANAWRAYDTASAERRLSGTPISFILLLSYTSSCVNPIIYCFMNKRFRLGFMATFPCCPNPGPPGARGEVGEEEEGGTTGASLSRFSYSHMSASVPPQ

[5] = target: Growth hormone secretagogue receptor type 1 (Homo sapiens, UniProt Q92847)
Growth hormone secretagogue receptor type 1, sequence (Q92847 whole entry): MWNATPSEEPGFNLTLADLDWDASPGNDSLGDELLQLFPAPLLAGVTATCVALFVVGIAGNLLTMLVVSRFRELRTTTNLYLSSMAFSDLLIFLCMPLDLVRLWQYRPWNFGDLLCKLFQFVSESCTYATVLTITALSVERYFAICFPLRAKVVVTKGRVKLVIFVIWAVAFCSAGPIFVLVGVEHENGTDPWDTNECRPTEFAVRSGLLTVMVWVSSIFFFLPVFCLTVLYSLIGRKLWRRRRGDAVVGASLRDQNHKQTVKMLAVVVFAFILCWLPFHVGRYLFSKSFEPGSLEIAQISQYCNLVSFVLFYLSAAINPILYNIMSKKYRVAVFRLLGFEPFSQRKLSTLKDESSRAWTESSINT

Progesterone receptor = target: T5, Progesterone receptor (Homo sapiens, UniProt P06401); assay type: functional
T5 sequence (P06401 whole entry): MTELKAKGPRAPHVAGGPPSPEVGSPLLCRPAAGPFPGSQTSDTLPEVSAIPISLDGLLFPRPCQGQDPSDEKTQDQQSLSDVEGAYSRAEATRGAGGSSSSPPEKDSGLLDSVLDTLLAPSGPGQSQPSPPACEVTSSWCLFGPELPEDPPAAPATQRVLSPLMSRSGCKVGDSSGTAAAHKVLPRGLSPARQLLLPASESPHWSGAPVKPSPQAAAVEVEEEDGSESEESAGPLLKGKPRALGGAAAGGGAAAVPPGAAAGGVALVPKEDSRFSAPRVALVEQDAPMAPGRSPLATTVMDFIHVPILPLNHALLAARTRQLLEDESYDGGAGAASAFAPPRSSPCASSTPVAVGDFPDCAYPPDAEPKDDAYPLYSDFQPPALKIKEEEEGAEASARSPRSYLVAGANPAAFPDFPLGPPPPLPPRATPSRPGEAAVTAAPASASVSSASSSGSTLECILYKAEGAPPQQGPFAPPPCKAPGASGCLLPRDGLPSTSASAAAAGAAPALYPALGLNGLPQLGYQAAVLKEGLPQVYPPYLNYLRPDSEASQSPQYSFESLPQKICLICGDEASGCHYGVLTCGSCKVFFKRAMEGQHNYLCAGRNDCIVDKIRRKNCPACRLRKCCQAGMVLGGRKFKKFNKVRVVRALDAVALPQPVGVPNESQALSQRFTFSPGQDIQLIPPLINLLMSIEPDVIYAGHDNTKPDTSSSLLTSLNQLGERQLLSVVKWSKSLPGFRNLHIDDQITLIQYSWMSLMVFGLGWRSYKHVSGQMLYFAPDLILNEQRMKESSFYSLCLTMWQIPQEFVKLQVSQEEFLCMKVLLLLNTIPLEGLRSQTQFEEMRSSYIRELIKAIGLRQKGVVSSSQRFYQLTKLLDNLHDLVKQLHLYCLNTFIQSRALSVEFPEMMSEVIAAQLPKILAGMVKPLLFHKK

[6] = target: cGMP-inhibited 3',5'-cyclic phosphodiesterase 3A (Homo sapiens, UniProt Q14432); assay type: functional
cGMP-inhibited 3',5'-cyclic phosphodiesterase 3A, sequence (Q14432 whole entry): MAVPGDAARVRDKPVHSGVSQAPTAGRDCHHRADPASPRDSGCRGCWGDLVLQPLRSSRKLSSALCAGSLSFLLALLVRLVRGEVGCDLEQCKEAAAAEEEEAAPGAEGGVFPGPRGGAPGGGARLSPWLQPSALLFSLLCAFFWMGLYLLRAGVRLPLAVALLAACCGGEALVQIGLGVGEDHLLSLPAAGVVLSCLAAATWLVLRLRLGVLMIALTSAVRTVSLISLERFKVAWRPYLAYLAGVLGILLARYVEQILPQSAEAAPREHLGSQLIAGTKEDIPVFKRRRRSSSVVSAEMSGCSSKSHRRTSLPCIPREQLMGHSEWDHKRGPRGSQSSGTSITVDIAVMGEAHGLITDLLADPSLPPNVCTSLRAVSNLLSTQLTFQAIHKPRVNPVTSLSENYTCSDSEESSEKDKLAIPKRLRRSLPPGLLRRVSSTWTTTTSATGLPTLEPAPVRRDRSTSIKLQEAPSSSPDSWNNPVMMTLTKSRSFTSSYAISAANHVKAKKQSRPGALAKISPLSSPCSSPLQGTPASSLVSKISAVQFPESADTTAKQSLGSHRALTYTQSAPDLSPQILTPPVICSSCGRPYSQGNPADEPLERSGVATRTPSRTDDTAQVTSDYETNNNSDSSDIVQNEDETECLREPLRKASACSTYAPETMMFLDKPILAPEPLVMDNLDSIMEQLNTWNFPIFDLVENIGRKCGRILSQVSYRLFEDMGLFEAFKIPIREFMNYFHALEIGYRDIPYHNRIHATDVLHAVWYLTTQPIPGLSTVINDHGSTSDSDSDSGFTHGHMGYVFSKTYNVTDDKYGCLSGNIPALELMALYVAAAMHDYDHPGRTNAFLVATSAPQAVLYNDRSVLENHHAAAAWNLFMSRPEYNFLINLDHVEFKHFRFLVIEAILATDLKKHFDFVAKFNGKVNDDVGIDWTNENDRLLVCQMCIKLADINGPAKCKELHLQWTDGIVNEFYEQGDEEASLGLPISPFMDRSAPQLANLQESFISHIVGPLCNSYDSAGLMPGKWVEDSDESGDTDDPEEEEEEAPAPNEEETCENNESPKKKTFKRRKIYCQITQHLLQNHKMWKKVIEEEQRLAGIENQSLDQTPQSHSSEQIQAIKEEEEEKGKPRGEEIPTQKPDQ

D(3) dopamine receptor = D(3) dopamine receptor (Homo sapiens, UniProt P35462)
D(3) dopamine receptor, sequence (P35462 whole entry): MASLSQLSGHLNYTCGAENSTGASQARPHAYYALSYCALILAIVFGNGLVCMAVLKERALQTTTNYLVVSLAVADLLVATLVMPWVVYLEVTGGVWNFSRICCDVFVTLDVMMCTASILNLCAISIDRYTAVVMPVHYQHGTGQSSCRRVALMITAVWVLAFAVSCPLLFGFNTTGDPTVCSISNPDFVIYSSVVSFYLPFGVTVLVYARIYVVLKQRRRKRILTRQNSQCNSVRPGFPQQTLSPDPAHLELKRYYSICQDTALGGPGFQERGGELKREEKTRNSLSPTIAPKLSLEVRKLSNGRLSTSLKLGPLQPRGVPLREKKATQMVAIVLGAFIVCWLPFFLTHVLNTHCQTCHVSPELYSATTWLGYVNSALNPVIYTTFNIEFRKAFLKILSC
Also: assay procedure not described here.

SMILES	AC50 [1] [µM]	AC50 (Adenosine receptor A2a) [µM]	AC50 [2] [µM]	AC50 [3] [µM]	AC50 (Vasopressin V1a receptor) [µM]	AC50 [4] [µM]	AC50 [5] [µM]	AC50 (Progesterone receptor) [µM]	AC50 [6] [µM]	AC50 (D(3) dopamine receptor) [µM]
N=C(N)NCc1cccc([123I])c1 [IOBENGUANE I 123]	> 30									
CC(C)(N)C(=O)N[C@H](Cc1c[nH]c2ccccc12)C(=O)N[C@H](Cc1c[nH]c2ccccc12)NC=O [MACIMORELIN]	> 30									
C=C1c2c(Cl)ccc(O)c2C(=O)C2=C(O)[C@]3(O)C(=O)C(C(N)=O)=C(O)[C@@H](N(C)C)[C@@H]3[C@@H](O)[C@H]12 [MECLOCYCLINE]	> 30									
Cc1cc2c(OCC(O)CNC(C)C)cccc2[nH]1 (stereo not given) [MEPINDOLOL]	> 30									
CCCCCOc1ccc(-c2cc(-c3ccc(C(=O)N[C@H]4C[C@@H](O)[C@@H](O)NC(=O)[C@@H]5[C@@H](O)[C@@H](C)CN5C(=O)[C@H]([C@H](O)CC(N)=O)NC(=O)[C@H]([C@H](O)[C@@H](O)c5ccc(O)c(OS(=O)(=O)O)c5)NC(=O)[C@@H]5C[C@@H](O)CN5C(=O)[C@H]([C@@H](C)O)NC4=O)cc3)no2)cc1 [MICAFUNGIN] (X1-[Orn(4R-OH,5R-OH)]T[Hyp][hTyr(3S-OH,4S-OH,3'-OSO3H)][Gln(3R-OH)][Pro(3S-OH,4S-Me)]; lactam 1-C)	> 30									
CCOc1cc(N)c(Cl)cc1C(=O)NCC1CN(Cc2ccc(F)cc2)CCO1 (stereo not given) [MOSAPRIDE]	> 30									
CCOc1ccc2ccccc2c1C(=O)N[C@@H]1C(=O)N2[C@@H]1SC(C)(C)[C@@H]2C(=O)O [NAFCILLIN]	> 30									
CN1CCC[C@H]1c1cccnc1 [NICOTINE]	> 30									
C#C[C@]1(O)CC[C@H]2[C@@H]3CCC4=C(CCC(=O)C4)[C@H]3CC[C@@]21C [NORETHYNODREL]	> 30									
CN(C)c1cc(CNCC(C)(C)C)c(O)c2c1C[C@H]1C[C@H]3[C@H](N(C)C)C(O)=C(C(N)=O)C(=O)[C@@]3(O)C(O)=C1C2=O [OMADACYCLINE]		> 30	> 30	> 30	> 30	> 30	> 30	> 30	> 30	27
CCCCCCCCCCC[C@@H](C[C@@H]1OC(=O)[C@H]1CCCCCC)OC(=O)[C@H](CC(C)C)NC=O [ORLISTAT]	> 30									
O=C1[C@H]2CCCC[C@H]2C(=O)N1CCCCN1CCN(c2nsc3ccccc23)CC1 [PEROSPIRONE]	> 30									
O=C1NC(=O)C(c2ccccc2)(c2ccccc2)N1 [PHENYTOIN]		> 30	> 30	> 30	> 30	> 30	> 30	> 30	> 30	> 30
CC(C)C[C@H](CN)CC(=O)O [PREGABALIN]		> 30	> 30	> 30	> 30	> 30	> 30	> 30	> 30	> 30
CCOc1cc(CC(=O)N[C@@H](CC(C)C)c2ccccc2N2CCCCC2)ccc1C(=O)O [REPAGLINIDE]		> 30	> 30	> 30	> 30	> 30	> 30	> 30	> 30	> 30
O=C(Nc1c(Cl)cncc1Cl)c1ccc(OC(F)F)c(OCC2CC2)c1 [ROFLUMILAST]		> 30	> 30	> 30	> 30	> 30	> 30	> 30	> 30	> 30
Cc1cc(CC(=O)O)n(C)c1C(=O)c1ccc(Cl)cc1 [ZOMEPIRAC]		> 30	> 30	> 30	> 30	> 30	> 30	> 30	> 30	> 30
